Experimental data published in patent US20240165123A1, “USE OF A COMPOUND CONTAINING A TRICYCLIC HETEROARYL GROUP” (CSPC Zhongqi Pharmaceutical Technology (Shijiazhuang) Co., …, priority 2021, published 2024).
Where two headings read alike, the source gives them in different places.

Key:
[1] = tested on: MRL/lpr lupus erythematosus model mice; type: in vivo; parameters: key to Kidney IHC (IgG) pathological score, bilateral kidneys: product score; 0 negative, 1-3 low, 4-8 medium, 9-12 high; conditions: for Area under the urine protein curve: 16 weeks; for Kidney HE pathological score of both kidneys, Activity index / Kidney HE pathological score of both kidneys, Chronicity index / Kidney HE pathological score of both kidneys, Tubulointerstitial lesions / Kidney IHC (IgG) pathological score, bilateral kidneys / Skin HE pathological score / Total kidney weight / Total kidney weight/body weight %: after 17 weeks of treatment; for IL-6 concentration in serum (ELISA) / Spleen weight / Spleen weight/body weight % / TNF-alpha concentration in serum (ELISA) / Total lymph node weight / Total lymph node weight/body weight %: end of the test
Description: • female MRL/lpr mice aged 4 weeks, number: 50; • female C57BL/6 mice aged 4 weeks, number: 10.
According to the concentration of the serum anti-ds-DNA antibody, female MRL/lpr mice were randomly divided into five groups: model group: solvent (aqueous solution containing 0.4% Tween 80 and 0.5% methylcellulose) 10 mL/kg BID, positive control group: prednisone 6 mg/kg QD, compound (I) 20, 40 and 60 mg/kg BID groups, the administration volumes respectively: 10 mL/kg. In addition, female C57BL/6 mice served as the normal control group. The animals in the Compound (I) group and the model group were administrated with the medicament or the solvent by gavage twice a day starting from the beginning of five weeks of age with an interval of 8 hours between two administrations; prednisone was administered to the animals by gavage once a day from the beginning of five weeks of age; the administration was totally performed for 17 weeks.
Two mice in the model group died at 15 and 16 weeks of administration, respectively, and 8 mice remained at the end of the test; one mouse in the compound (I) 20 mg/kg bid group died in the later period of the 16th week of administration, and 9 mice remained at the end of the test; and no death of mice occurred in other groups.
The skin destructions on the face, ears and back of mice were observed and scored once a week for 17 times totally.
Scoring system: 1) red swelling and bleeding of the skin; 2) the extent of hair loss and skin dryness; 3) edema; 4) excoriation/corrosion; 5) lichenoid sclerotic plaque and other symptoms. The score of each item was as follows: normal=0 points; slight=1 point; moderate=2 points; severe=3 points. The severity of skin destruction was determined according to the total score of each evaluated symptom. […]
The lymph nodes of MRL/lpr mice were scored once a week for a total of 17 times during the test.
According to the lymph node diameter (cm), the score values were 0-6 points: • 0 point: normal; • 1 point: small (the diameter at one location of points on both sides was less than 1 cm); • 2 points: small (the diameters at two location of points on both sides were less than 1 cm); • 3 points: small (the diameters at three location of points on both sides were less than 1 cm); • 4 points: large (the diameter at one location of points on both sides was larger than 1 cm, the diameters at the other two location of points on both sides were less than 1 cm); • 5 points: large (the diameters at two location of points on both sides were larger than 1 cm, and the diameter at the other location of points on both sides was less than 1 cm); • 6 points: large (the diameters at three location of points on both sides were greater than 1 cm). […]
Kidney HE scoring criteria: […]
During the test, the concentration of serum anti-ds-DNA antibody of mice were detected every 4 weeks for 16 weeks.
At the end of the test, the serum cytokine levels of mice were detected by ELISA. […] See Table 25 and FIG. 17 for details.

NC(=O)c1cnc(Nc2ccc3c(c2)OC[C@H]2CN(S(=O)(=O)C4CC4)CCN32)nc1NC1CC1 [Compound (I), (R)-4-(cyclopropylamino)-2-((3-(cyclopropylsulfonyl)-1,2,3,4,4a,5-hexahydrobenzo[b]pyrazolo[1,2-d][1,4]oxazin-8-yl)amino)pyrimidine-5-arboxamide]
Genotoxicity (Genotoxicity): no genotoxicity
Area under the urine protein curve ([1]; 20 mg/kg BID): 5646.42 ± 587.29 wk*mg/L
Kidney HE pathological score of both kidneys, Activity index ([1]; 20 mg/kg BID): 5.20 ± 0.73
Kidney HE pathological score of both kidneys, Chronicity index ([1]; 20 mg/kg BID): 7.00 ± 0.54
Kidney HE pathological score of both kidneys, Tubulointerstitial lesions ([1]; 20 mg/kg BID): 13.50 ± 0.52
Kidney IHC (IgG) pathological score, bilateral kidneys ([1]; 20 mg/kg BID): 8.90 ± 0.72
Skin HE pathological score ([1]; 20 mg/kg BID): 3.56 ± 0.44
Total kidney weight ([1]; 20 mg/kg BID): 0.4146 ± 0.02 g
Total kidney weight/body weight % ([1]; 20 mg/kg BID): 1.1855 ± 0.05%
IL-6 concentration in serum (ELISA) ([1]; 20 mg/kg BID): 52.38 ± 5.29 pg/mL
Spleen weight ([1]; 20 mg/kg BID): 0.4658 ± 0.04 g
Spleen weight/body weight % ([1]; 20 mg/kg BID): 1.3336 ± 0.11 %
TNF-alpha concentration in serum (ELISA) ([1]; 20 mg/kg BID): 48.03 ± 4.12 pg/mL
Total lymph node weight ([1]; 20 mg/kg BID): 1.6823 ± 0.24 g
Total lymph node weight/body weight % ([1]; 20 mg/kg BID): 4.7396 ± 0.60%
Lymph node score ([1]; 20 mg/kg BID, week 0): 0.0 ± 0.00
Skin score (skin destruction) ([1]; 20 mg/kg BID, week 0): 0.0 ± 0.00
Skin score (skin destruction) ([1]; 20 mg/kg BID, week 4): 0.0 ± 0.00
Lymph node score ([1]; 20 mg/kg BID, week 6): 0.0 ± 0.00
Lymph node score ([1]; 20 mg/kg BID, week 7): 0.6 ± 0.22
Skin score (skin destruction) ([1]; 20 mg/kg BID, week 8): 0.0 ± 0.00
Lymph node score ([1]; 20 mg/kg BID, week 9): 2.0 ± 0.26
Lymph node score ([1]; 20 mg/kg BID, week 11): 2.8 ± 0.29
Lymph node score ([1]; 20 mg/kg BID, week 12): 3.0 ± 0.21
Skin score (skin destruction) ([1]; 20 mg/kg BID, week 12): 0.0 ± 0.00
Skin score (skin destruction) ([1]; 20 mg/kg BID, week 14): 0.2 ± 0.20
Skin score (skin destruction) ([1]; 20 mg/kg BID, week 16): 0.2 ± 0.13
Lymph node score ([1]; 20 mg/kg BID, week 17): 3.6 ± 0.24
Skin score (skin destruction) ([1]; 20 mg/kg BID, week 17): 0.2 ± 0.15
Area under the urine protein curve ([1]; 40 mg/kg BID): 3851.50 ± 340.32 wk*mg/L
Kidney HE pathological score of both kidneys, Activity index ([1]; 40 mg/kg BID): 4.00 ± 0.42
Kidney HE pathological score of both kidneys, Chronicity index ([1]; 40 mg/kg BID): 7.60 ± 0.50
Kidney HE pathological score of both kidneys, Tubulointerstitial lesions ([1]; 40 mg/kg BID): 12.30 ± 1.03
Kidney IHC (IgG) pathological score, bilateral kidneys ([1]; 40 mg/kg BID): 7.40 ± 0.56
Skin HE pathological score ([1]; 40 mg/kg BID): 3.60 ± 0.37
Total kidney weight ([1]; 40 mg/kg BID): 0.3704 ± 0.01 g
Total kidney weight/body weight % ([1]; 40 mg/kg BID): 1.0997 ± 0.05%
IL-6 concentration in serum (ELISA) ([1]; 40 mg/kg BID): 63.17 ± 12.60 pg/mL
Spleen weight ([1]; 40 mg/kg BID): 0.3184 ± 0.03 g
Spleen weight/body weight % ([1]; 40 mg/kg BID): 0.9485 ± 0.09 %
TNF-alpha concentration in serum (ELISA) ([1]; 40 mg/kg BID): 32.29 ± 4.62 pg/mL
Total lymph node weight ([1]; 40 mg/kg BID): 0.7319 ± 0.12 g
Total lymph node weight/body weight % ([1]; 40 mg/kg BID): 2.1603 ± 0.35 %
Concentration of serum anti-ds-DNA antibody ([1]; 40 mg/kg BID, week 0): 3.32 ± 0.39 µg/mL
Lymph node score ([1]; 40 mg/kg BID, week 0): 0.0 ± 0.00
Skin score (skin destruction) ([1]; 40 mg/kg BID, week 0): 0.0 ± 0.00
Concentration of serum anti-ds-DNA antibody ([1]; 40 mg/kg BID, week 4): 346.06 ± 35.04 µg/mL
Skin score (skin destruction) ([1]; 40 mg/kg BID, week 4): 0.0 ± 0.00
Lymph node score ([1]; 40 mg/kg BID, week 6): 0.0 ± 0.00
Lymph node score ([1]; 40 mg/kg BID, week 7): 0.3 ± 0.15
Concentration of serum anti-ds-DNA antibody ([1]; 40 mg/kg BID, week 8): 885.04 ± 96.38 µg/mL
Skin score (skin destruction) ([1]; 40 mg/kg BID, week 8): 0.0 ± 0.00
Lymph node score ([1]; 40 mg/kg BID, week 9): 0.7 ± 0.26
Lymph node score ([1]; 40 mg/kg BID, week 11): 0.9 ± 0.23
Concentration of serum anti-ds-DNA antibody ([1]; 40 mg/kg BID, week 12): 1390.83 ± 266.11 µg/mL
Lymph node score ([1]; 40 mg/kg BID, week 12): 1.2 ± 0.25
Skin score (skin destruction) ([1]; 40 mg/kg BID, week 12): 0.0 ± 0.00
Skin score (skin destruction) ([1]; 40 mg/kg BID, week 14): 0.0 ± 0.00
Concentration of serum anti-ds-DNA antibody ([1]; 40 mg/kg BID, week 16): 1198.59 ± 86.64 µg/mL
Skin score (skin destruction) ([1]; 40 mg/kg BID, week 16): 0.0 ± 0.00
Lymph node score ([1]; 40 mg/kg BID, week 17): 1.5 ± 0.34
Skin score (skin destruction) ([1]; 40 mg/kg BID, week 17): 0.0 ± 0.00
Area under the urine protein curve ([1]; 60 mg/kg BID): 4138.70 ± 1048.57 wk*mg/L
Kidney HE pathological score of both kidneys, Activity index ([1]; 60 mg/kg BID): 3.90 ± 0.75
Kidney HE pathological score of both kidneys, Chronicity index ([1]; 60 mg/kg BID): 6.00 ± 0.75
Kidney HE pathological score of both kidneys, Tubulointerstitial lesions ([1]; 60 mg/kg BID): 8.50 ± 0.91
Kidney IHC (IgG) pathological score, bilateral kidneys ([1]; 60 mg/kg BID): 6.90 ± 0.28
Skin HE pathological score ([1]; 60 mg/kg BID): 2.60 ± 0.37
Total kidney weight ([1]; 60 mg/kg BID): 0.3639 ± 0.02 g
Total kidney weight/body weight % ([1]; 60 mg/kg BID): 1.1424 ± 0.07%
IL-6 concentration in serum (ELISA) ([1]; 60 mg/kg BID): 35.99 ± 7.36 pg/mL
Spleen weight ([1]; 60 mg/kg BID): 0.2805 ± 0.03 g
Spleen weight/body weight % ([1]; 60 mg/kg BID): 0.8892 ± 0.10 %
TNF-alpha concentration in serum (ELISA) ([1]; 60 mg/kg BID): 30.61 ± 4.72 pg/mL
Total lymph node weight ([1]; 60 mg/kg BID): 0.5680 ± 0.08 g
Total lymph node weight/body weight % ([1]; 60 mg/kg BID): 1.7879 ± 0.26 %
Concentration of serum anti-ds-DNA antibody ([1]; 60 mg/kg BID, week 0): 3.33 ± 0.42 µg/mL
Lymph node score ([1]; 60 mg/kg BID, week 0): 0.0 ± 0.00
Skin score (skin destruction) ([1]; 60 mg/kg BID, week 0): 0.0 ± 0.00
Concentration of serum anti-ds-DNA antibody ([1]; 60 mg/kg BID, week 4): 249.26 ± 24.12 µg/mL
Skin score (skin destruction) ([1]; 60 mg/kg BID, week 4): 0.0 ± 0.00
Lymph node score ([1]; 60 mg/kg BID, week 6): 0.0 ± 0.00
Lymph node score ([1]; 60 mg/kg BID, week 7): 0.1 ± 0.10
Concentration of serum anti-ds-DNA antibody ([1]; 60 mg/kg BID, week 8): 806.75 ± 110.22 µg/mL
Skin score (skin destruction) ([1]; 60 mg/kg BID, week 8): 0.0 ± 0.00
Lymph node score ([1]; 60 mg/kg BID, week 9): 0.3 ± 0.15
Lymph node score ([1]; 60 mg/kg BID, week 11): 0.4 ± 0.16
Concentration of serum anti-ds-DNA antibody ([1]; 60 mg/kg BID, week 12): 1168.19 ± 113.75 µg/mL
Lymph node score ([1]; 60 mg/kg BID, week 12): 0.5 ± 0.22
Skin score (skin destruction) ([1]; 60 mg/kg BID, week 12): 0.0 ± 0.00
Skin score (skin destruction) ([1]; 60 mg/kg BID, week 14): 0.0 ± 0.00
Concentration of serum anti-ds-DNA antibody ([1]; 60 mg/kg BID, week 16): 1272.27 ± 50.19 µg/mL
Skin score (skin destruction) ([1]; 60 mg/kg BID, week 16): 0.0 ± 0.00
Lymph node score ([1]; 60 mg/kg BID, week 17): 1.0 ± 0.26
Skin score (skin destruction) ([1]; 60 mg/kg BID, week 17): 0.0 ± 0.00
Mice died during the test ([1]; mouse, in vivo): one
